Results: ChEMBL document CHEMBL4043136, “Chiral-pool synthesis of 1,2,4-trisubstituted 1,4-diazepanes as novel σ1 receptor ligands” (Bioorg Med Chem, 2017)
Calls of active or inactive are those of the source. The calls are words filed in the database; no cut-off is given here.

Experiments:
[1] = target: C-8 sterol isomerase ERG2 (Saccharomyces cerevisiae S288c) (UniProt P32352); test: Inhibition of yeast sterol-delta8/7-isomerase assessed as accumulation of cholesta-5,7-dien-3beta-ol at 50 uM
[2] = target: T1, Sigma intracellular receptor 2 (Rattus norvegicus, UniProt Q5U3Y7); test: Displacement of [3H]-DTG from sigma2 receptor in rat liver membranes after 120 mins by liquid scintillation counting; assay type: cell membranes, Membrane
T1 sequence (Q5U3Y7 whole entry): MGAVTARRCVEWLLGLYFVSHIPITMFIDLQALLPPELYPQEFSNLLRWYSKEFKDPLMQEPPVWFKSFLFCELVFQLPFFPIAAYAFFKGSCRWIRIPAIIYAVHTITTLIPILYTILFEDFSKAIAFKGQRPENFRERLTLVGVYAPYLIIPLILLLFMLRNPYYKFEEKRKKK

[3] = target: C-8 sterol isomerase ERG2 (Saccharomyces cerevisiae S288c) (UniProt P32352); test: Inhibition of yeast sterol-delta8/7-isomerase assessed as accumulation of cholesta-7-en-3beta-ol at 50 uM
[4] = target: C-8 sterol isomerase ERG2 (Saccharomyces cerevisiae S288c) (UniProt P32352); test: Inhibition of yeast sterol-delta8/7-isomerase assessed as accumulation of cholesta-8,14-dien-3beta-ol at 1 uM
[5] = target: C-8 sterol isomerase ERG2 (Saccharomyces cerevisiae S288c) (UniProt P32352); test: Inhibition of yeast sterol-delta8/7-isomerase assessed as accumulation of cholesta-7-en-3beta-ol at 1 uM
[6] = target: C-8 sterol isomerase ERG2 (Saccharomyces cerevisiae S288c) (UniProt P32352); test: Inhibition of yeast sterol-delta8/7-isomerase assessed as accumulation of cholesta-8-en-3beta-ol at 50 uM
[7] = target: C-8 sterol isomerase ERG2 (Saccharomyces cerevisiae S288c) (UniProt P32352); test: Inhibition of yeast sterol-delta8/7-isomerase assessed as accumulation of cholesta-8,14-dien-3beta-ol at 50 uM
[8] = target: C-8 sterol isomerase ERG2 (Saccharomyces cerevisiae S288c) (UniProt P32352); test: Inhibition of yeast sterol-delta8/7-isomerase assessed as accumulation of cholesta-8-en-3beta-ol at 1 uM
[9] = Displacement of [3H]-(+)-MK 801 from PCP binding site of NMDA receptor in pig brain cortex membranes after 120 mins by liquid scintillation spectrometry; assay type: cell membranes, Sus scrofa
[10] = target: C-8 sterol isomerase ERG2 (Saccharomyces cerevisiae S288c) (UniProt P32352); test: Inhibition of yeast sterol-delta8/7-isomerase assessed as accumulation of cholesta-5,7-dien-3beta-ol at 1 uM
[11] = target: Sigma non-opioid intracellular receptor 1 (Cavia porcellus, UniProt Q60492); test: Displacement of [3H]-pentazocine from sigma1 receptor in guinea pig brain membranes after 120 mins by liquid scintillation counting; assay type: cell membranes, Membrane
Sequence of Sigma non-opioid intracellular receptor 1 (Q60492 whole entry): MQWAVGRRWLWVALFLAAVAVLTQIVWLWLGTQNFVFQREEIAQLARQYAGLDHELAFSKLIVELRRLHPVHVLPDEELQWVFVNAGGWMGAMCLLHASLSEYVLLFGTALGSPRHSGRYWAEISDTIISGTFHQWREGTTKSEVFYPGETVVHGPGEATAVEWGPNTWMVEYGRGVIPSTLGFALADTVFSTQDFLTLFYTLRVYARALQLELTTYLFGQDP

[12] = target: C-8 sterol isomerase ERG2 (Saccharomyces cerevisiae S288c) (UniProt P32352); test: Inhibition of yeast sterol-delta8/7-isomerase at 50 uM

Sequence of C-8 sterol isomerase ERG2 (Saccharomyces cerevisiae S288c) (P32352 whole entry, looked up): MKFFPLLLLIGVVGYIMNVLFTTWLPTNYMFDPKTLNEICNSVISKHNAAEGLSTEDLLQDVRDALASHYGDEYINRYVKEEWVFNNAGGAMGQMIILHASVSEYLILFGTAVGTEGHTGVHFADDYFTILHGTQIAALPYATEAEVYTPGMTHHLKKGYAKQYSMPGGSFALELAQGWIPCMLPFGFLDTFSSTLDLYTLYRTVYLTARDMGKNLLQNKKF

SMILES	inhibition [1]	Ki [2]	inhibition [3]	inhibition [4]	inhibition [5]	inhibition [6]	inhibition [7]	inhibition [8]	IC50 [9]	inhibition [10]	Ki [11]	inhibition [12]
c1ccc(C[C@@H]2CNCCCN2Cc2ccccc2)cc1	Active	> 1000 nM	Active	Active	Active	inactive	Active	Active	> 1000 nM	Active	> 1000 nM	–
C[C@H]1CN(CC2CCCCC2)CCCN1Cc1ccc(Cl)cc1	–	51 nM	–	–	–	–	–	–	> 1000 nM	–	4.9 nM	–
C[C@@H]1CN(CCCCc2ccccc2)CCCN1Cc1ccccc1	Active	71 nM	Active	inactive	Active	inactive	inactive	Active	> 1000 nM	Active	0.83 nM	–
C[C@@H]1CN(CC2CCCCC2)CCCN1Cc1ccccc1	Active	7 nM	Active	inactive	Active	inactive	inactive	inactive	> 1000 nM	Active	0.38 nM	–
CCCCN1CCCN(CCCC)[C@H](Cc2ccccc2)C1	–	> 1000 nM	–	–	–	–	–	–	> 1000 nM	–	21 nM	–
C[C@H]1CN(CCCCc2ccccc2)CCCN1Cc1ccccc1	–	8.6 nM	–	inactive	Active	–	–	Active	> 1000 nM	Active	0.77 nM	–
OC(CN1CCCN(Cc2ccccc2)[C@@H](Cc2ccccc2)C1)c1ccccc1 (some centres undefined)	–	903 nM	–	–	–	–	–	–	> 1000 nM	–	234 nM	–
COc1ccc(CN2CCCN(Cc3ccccc3)[C@@H](C(C)C)C2)cc1	Active	> 1000 nM	Active	Active	Active	Active	inactive	Active	> 1000 nM	Active	20 nM	–
CCCCN1CCCN(Cc2ccccc2)[C@H](C)C1	Active	372 nM	Active	Active	Active	inactive	inactive	Active	> 1000 nM	inactive	0.37 nM	–
COc1ccc(CN2CCCN(Cc3ccccc3)[C@H](Cc3ccccc3)C2)cc1	Active	426 nM	Active	Active	Active	inactive	Active	Active	> 1000 nM	Active	42 nM	Active
OCC(c1ccccc1)N1CCCN(Cc2ccccc2)[C@@H](Cc2ccccc2)C1 (some centres undefined)	–	> 1000 nM	–	–	–	–	–	–	> 1000 nM	–	228 nM	–
CCCCN1CCCN(C)[C@@H](Cc2ccccc2)C1	–	> 1000 nM	–	–	–	–	–	–	> 1000 nM	–	120 nM	–
CCCCN1CCCN(CCCCc2ccccc2)[C@H](Cc2ccccc2)C1	–	942 nM	–	–	–	–	–	–	> 1000 nM	–	13 nM	–
c1ccc(CCCCN2CCCN(Cc3ccccc3)[C@H](Cc3ccccc3)C2)cc1	Active	423 nM	Active	inactive	Active	Active	Active	inactive	> 1000 nM	Active	28 nM	–
c1ccc(CCN2CCCN(Cc3ccccc3)[C@H](Cc3ccccc3)C2)cc1	–	> 1000 nM	–	Active	Active	–	–	Active	> 1000 nM	Active	52 nM	–
c1ccc(CCCN2CCCN(Cc3ccccc3)[C@H](Cc3ccccc3)C2)cc1	Active	300 nM	Active	Active	Active	Active	Active	Active	> 1000 nM	inactive	25 nM	–

SMILES	inhibition [1]	Ki [2]	inhibition [3]	inhibition [4]	inhibition [5]	inhibition [6]	inhibition [7]	inhibition [8]	IC50 [9]	inhibition [10]	Ki [11]	inhibition [12]
c1ccc(CCCN2CCCN(Cc3ccccc3)[C@@H](Cc3ccccc3)C2)cc1	–	193 nM	–	Active	Active	–	–	Active	> 1000 nM	Active	73 nM	–
CCCCN1CCCN(C)[C@H](Cc2ccccc2)C1	–	1000 nM	–	–	–	–	–	–	> 1000 nM	–	113 nM	–
COc1ccc(CN2CCCN(CC3CCCCC3)C[C@@H]2C)cc1	–	19 nM	–	–	–	–	–	–	> 1000 nM	–	1.1 nM	–
C[C@H]1CN(CC2CCCCC2)CCCN1Cc1ccccc1	Active	7.4 nM	Active	inactive	Active	inactive	inactive	inactive	> 1000 nM	Active	0.22 nM	–
c1ccc(C[C@H]2CNCCCN2Cc2ccccc2)cc1	inactive	> 10000 nM	Active	Active	Active	inactive	Active	Active	> 1000 nM	Active	> 1000 nM	–
COc1ccc(CN2CCCN(Cc3ccccc3)[C@H](C)C2)cc1	–	431 nM	–	–	–	–	–	–	> 1000 nM	–	0.51 nM	–
CC(C)[C@H]1CN(CC2CCCCC2)CCCN1Cc1ccccc1	Active	> 1000 nM	Active	Active	Active	Active	inactive	inactive	> 1000 nM	Active	6 nM	–
CCCCN1CCN(CCc2ccc(Cl)c(Cl)c2)CC1	–	–	–	–	–	–	–	–	–	–	0.55 nM	–
CCCCN1CCCN(CCCCc2ccccc2)[C@@H](Cc2ccccc2)C1	–	> 1000 nM	–	–	–	–	–	–	> 1000 nM	–	6.2 nM	–
CC(C)=CCN1CCCN(Cc2ccccc2)[C@H](Cc2ccccc2)C1	Active	325 nM	Active	inactive	Active	inactive	Active	inactive	> 1000 nM	Active	5 nM	–
CN1CCCN(Cc2ccccc2)[C@@H](Cc2ccccc2)C1	Active	> 1000 nM	Active	Active	Active	inactive	inactive	inactive	> 1000 nM	Active	448 nM	–
COc1ccc(CN2CCCN(Cc3ccccc3)[C@@H](Cc3ccccc3)C2)cc1	Active	> 1000 nM	Active	Active	inactive	inactive	Active	Active	> 1000 nM	Active	29 nM	–
CN1CCCN(Cc2ccccc2)[C@H](Cc2ccccc2)C1	Active	> 1000 nM	Active	Active	Active	Active	Active	inactive	> 1000 nM	Active	280 nM	–
c1ccc(CCCCN2CCCN(Cc3ccccc3)[C@@H](Cc3ccccc3)C2)cc1	–	372 nM	–	Active	Active	–	–	inactive	> 1000 nM	Active	38 nM	–
CCCCN1CCCN(Cc2ccccc2)[C@@H](C)C1	Active	276 nM	Active	Active	Active	inactive	inactive	Active	> 1000 nM	Active	0.61 nM	–
CCCCN1CCCN(CCCC)[C@@H](Cc2ccccc2)C1	–	278 nM	–	–	–	–	–	–	> 1000 nM	–	18 nM	–
